ChEMBL document CHEMBL4229474, “Indenone derivatives as inhibitor of human DNA dealkylation repair enzyme AlkBH3” (Bioorg Med Chem, 2018)
Activity calls are given as the source filed them. No cut-off for these calls is given here.

Tests used:
[1] = molecular target: T1, Alpha-ketoglutarate-dependent dioxygenase alkB homolog 3 (Homo sapiens, UniProt Q96Q83); assay: Inhibition of recombinant human AlkBH3 assessed as reduction in formaldehyde release using 40-mer single N3-meC as substrate incubated for 60 mins followed by substrate addition measured after 15 mins by fluorescence assay
T1 sequence (Q96Q83 whole entry): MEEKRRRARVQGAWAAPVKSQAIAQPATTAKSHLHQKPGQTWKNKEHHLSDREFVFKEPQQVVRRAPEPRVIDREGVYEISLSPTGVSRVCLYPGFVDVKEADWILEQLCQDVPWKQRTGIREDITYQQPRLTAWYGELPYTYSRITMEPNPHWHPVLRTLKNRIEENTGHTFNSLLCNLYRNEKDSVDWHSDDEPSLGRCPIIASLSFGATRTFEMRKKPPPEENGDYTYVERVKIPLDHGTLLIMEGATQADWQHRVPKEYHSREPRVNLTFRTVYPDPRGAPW

[2] = molecular target: T2, Alpha-ketoglutarate-dependent dioxygenase alkB homolog 3 (Homo sapiens) (UniProt Q96Q83); assay: Inhibition of recombinant human AlkBH3 assessed as reduction in formaldehyde release at 50 uM using 40-mer single N3-meC as substrate incubated for 60 mins followed by substrate addition measured after 15 mins by fluorescence assay
T2 sequence (whole entry): T1 sequence (Q96Q83 whole entry)

A549 [3] = assay: Cytotoxicity against human A549 cells assessed as decrease in cell viability after 48 to 72 hrs by MTT assay; type: functional, cell-based
A549 [4] = assay: Cytotoxicity against human A549 cells assessed as decrease in cell viability at 1 uM after 12 to 60 mins by MTT assay; type: functional, cell-based
[5] = molecular target: T2, Alpha-ketoglutarate-dependent dioxygenase alkB homolog 3 (Homo sapiens); assay: Inhibition of AlkBH3 in human A549 cells assessed as increase in MMS-induced cytotoxicity at 1 uM after 48 hrs by MTT assay; type: cell-based
A549 [6] = assay: Cytotoxicity against human A549 cells assessed as decrease in cell viability at 500 uM after 48 to 72 hrs by MTT assay; type: functional, cell-based
[7] = molecular target: T2, Alpha-ketoglutarate-dependent dioxygenase alkB homolog 3 (Homo sapiens); assay: Binding affinity to recombinant human AlkBH3 at 12 uM after 1 hr by near-UV circular dichroism spectroscopy
[8] = molecular target: T1, Alpha-ketoglutarate-dependent dioxygenase alkB homolog 3; assay: Binding affinity to recombinant human AlkBH3 incubated for 2 mins by isothermal titration calorimetric method
[9] = molecular target: T2, Alpha-ketoglutarate-dependent dioxygenase alkB homolog 3 (Homo sapiens); assay: Competitive inhibition of recombinant human AlkBH3 assessed as reduction in formaldehyde release at 50 to 500 uM using 40-mer internal N3me-oligo-dC as substrate incubated for 60 mins followed by substrate addition measured after 15 mins by Lineweaver-Burk plot analysis
[10] = molecular target: T2, Alpha-ketoglutarate-dependent dioxygenase alkB homolog 3 (Homo sapiens); assay: Mixed type inhibition of recombinant human AlkBH3 assessed as reduction in formaldehyde release at 50 to 500 uM using varying levels of 2OG as substrate incubated for 60 mins followed by substrate addition measured after 15 mins by Lineweaver-Burk plot analysis
[11] = molecular target: T2, Alpha-ketoglutarate-dependent dioxygenase alkB homolog 3 (Homo sapiens); assay: Binding affinity to recombinant human AlkBH3 at 12 uM after 1 hr by far-UV circular dichroism spectroscopy

| Compound | IC50 [1] | also measured |
| --- | --- | --- |
| COc1ccc(C2=C(Cl)C(=O)c3ccc(-c4ccccc4)cc32)cc1 | > 50 µM | IC50 (A549 [3]): 370 µM; Activity (A549 [4]): inactive; inhibition [5]: inactive |
| O=C1C(c2ccccc2)=C(c2ccccc2)c2cc(-c3ccccc3)ccc21 | > 50 µM |  |
| COc1ccc(C2=C(c3ccc(OC)cc3)c3cc(-c4ccccc4)ccc3C2=O)cc1 | > 50 µM |  |
| COc1ccc(C2=C(c3ccc(OC)c(OC)c3)c3cc(-c4ccc(C)cc4)ccc3C2=O)cc1OC | > 50 µM |  |
| COc1ccc(C2=C(c3ccc(OC)cc3)c3cc(C)ccc3C2=O)cc1 | > 50 µM |  |
| COc1ccc(C2=C(Cl)C(=O)c3ccc(C)cc32)cc1 | > 50 µM | Activity (A549 [4]): inactive; inhibition [5]: inactive; Activity (A549 [6]): inactive |
| COc1cccc(C2=C(c3cccc(OC)c3)c3cc(-c4ccccc4)ccc3C2=O)c1 | > 50 µM |  |
| COc1ccc(C2=C(c3cc(OC)cc(OC)c3)c3cc(C)ccc3C2=O)cc1 | > 50 µM |  |
| Cc1ccc(C2=C(Br)C(=O)c3ccc(C)cc32)cc1 | > 50 µM |  |
| Cc1ccc2c(c1)C(c1ccccc1)=C(Br)C2=O | > 50 µM |  |
| Cc1ccc2c(c1)C(c1ccccc1)=C(c1ccccc1)C2=O | > 50 µM |  |
| COc1ccc(C2=C(Br)C(=O)c3ccc(C)cc32)cc1OC | > 50 µM |  |
| Cc1ccc(C2=C(c3ccc(C)cc3)c3cc(C)ccc3C2=O)cc1 | > 50 µM |  |
| COc1ccc(C2=C(c3ccc(OC)c(OC)c3)c3cc(C)ccc3C2=O)cc1OC | > 50 µM |  |

More lines, main results first:

| IC50 [1] | Compound | also measured |
| --- | --- | --- |
| > 50 µM | COc1ccc(C2=C(c3cc(OC)cc(OC)c3)C(=O)c3ccc(C)cc32)cc1 |  |
| > 50 µM | COc1cc(OC)cc(C2=C(Br)C(=O)c3ccc(C)cc32)c1 |  |
| 32.3 µM | Cc1ccc2c(c1)C(c1ccc(Cl)c(Cl)c1)=C(c1ccc(Cl)c(Cl)c1)C2=O | inhibition [2]: Active |
| > 50 µM | COc1cccc(C2=C(c3cccc(OC)c3)c3cc(C)ccc3C2=O)c1 |  |
| 13.1 µM | COc1cccc(C2=C(c3cccc(OC)c3)c3cc(-c4ccc(C)cc4)ccc3C2=O)c1 | inhibition [2]: Active |
| > 50 µM | COc1ccc(C2=C(c3cc(OC)cc(OC)c3)C(=O)c3ccc(-c4ccc(C)cc4)cc32)cc1 |  |
| > 50 µM | Cc1ccc2c(c1)C(c1cccc3ccccc13)=C(Br)C2=O |  |
| > 50 µM | COc1ccc(C2=C(c3cc(OC)cc(OC)c3)C(=O)c3ccc(-c4ccccc4)cc32)cc1 |  |
| > 50 µM | COc1ccc(C2=C(c3ccc(OC)c(OC)c3)c3cc(-c4ccccc4)ccc3C2=O)cc1OC |  |
| 43.2 µM | COc1ccc(C2=C(Br)C(=O)c3ccc(C)cc32)cc1 |  |
| 9.8 µM | COc1ccc(C2=C(Cl)C(=O)c3ccc(-c4ccc(C)cc4)cc32)cc1 | Activity (A549 [3]): Dose-dependent effect; IC50 (A549 [3]): 18 µM; Activity [7]: Active; Activity (A549 [4]): Active; Kd [8]: 7.81 µM; inhibition [2]: Active; inhibition [5]: Active; inhibition [9]: Active; inhibition [10]: Active; Activity [11]: Active |
